Measurements from PubChem BioAssay (NCI).
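Method: 48-hour compound exposure of cells in 96-well plates, five concentrations, linear interpolation of endpoints. At the GI50, growth is halved. TGI is the concentration that stops growth completely.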

Key:
Assay in all cases: inhibition of tumour cell growth, NCI panel, 48 h
[1] = system: 786-0 renal
[2] = system: SNB-19 CNS
[3] = system: HL-60(TB) leukemia
[4] = system: HS 578T breast
[5] = system: SN12C renal
[6] = system: COLO 205 colon
[7] = system: KM12 colon
[8] = system: SR leukemia
[9] = system: SW-620 colon
[10] = system: DU-145 prostate
[11] = system: RPMI-8226 leukemia
[12] = system: OVCAR-4 ovarian
[13] = system: HT29 colon
[14] = system: SF-539 CNS
[15] = system: OVCAR-5 ovarian
[16] = system: HCT-116 colon
[17] = system: MOLT-4 leukemia
[18] = system: CAKI-1 renal
[19] = system: SK-MEL-28 melanoma
[20] = system: MDA-MB-231 breast
[21] = system: SK-MEL-5 melanoma
[22] = system: NCI-H226 lung
[23] = system: LOX IMVI melanoma
[24] = system: ACHN renal
[25] = system: OVCAR-8 ovarian
[26] = system: HCT-15 colon
[27] = system: UACC-62 melanoma
[28] = system: BT-549 breast
[29] = system: UACC-257 melanoma
[30] = system: UO-31 renal
[31] = system: HOP-92 NSCLC
[32] = system: PC-3 prostate
[33] = system: IGROV1 ovarian
[34] = system: SF-268 CNS
[35] = system: HCC-2998 colon
[36] = system: HOP-62 NSCLC
[37] = system: SF-295 CNS
[38] = system: MCF7 breast
[39] = system: SK-MEL-2 melanoma
[40] = system: T-47D breast
[41] = system: TK-10 renal
[42] = system: U251 CNS
[43] = system: NCI-H522 lung
[44] = system: RXF 393 renal
[45] = system: EKVX NSCLC
[46] = system: MDA-MB-435
[47] = system: M14 melanoma
[48] = system: NCI-H460 lung
[49] = system: OVCAR-3 ovarian
[50] = system: NCI/ADR-RES ovarian
[51] = system: A549 NSCLC
[52] = system: SNB-75 CNS
[53] = system: SK-OV-3 ovarian
[54] = system: CCRF-CEM leukemia
[55] = system: A498 renal
[56] = system: MALME-3M melanoma

COc1cc2c3c(n(CCCNCC4CC4)c(=O)c2cc1OC)-c1cc2c(cc1C3=O)OCO2
GI50 [1]: 1.44 µM
TGI [1]: 2.81 µM
GI50 [2]: 0.781 µM
TGI [2]: 2.47 µM
GI50 [3]: 1.47 µM
TGI [3]: 3.25 µM
GI50 [4]: 18.8 µM
TGI [4]: 59.6 µM
GI50 [5]: 1.37 µM
TGI [5]: 3.23 µM
GI50 [6]: 1.11 µM
TGI [6]: 4.21 µM
GI50 [7]: 1.37 µM
TGI [7]: 3.12 µM
GI50 [8]: 0.0708 µM
TGI [8]: 1.23 µM
GI50 [9]: 0.573 µM
TGI [9]: 2.19 µM
GI50 [10]: 0.759 µM
TGI [10]: 2.11 µM
GI50 [11]: 0.636 µM
TGI [11]: 3.31 µM
GI50 [12]: 1.73 µM
TGI [12]: 3.35 µM
GI50 [13]: 1.06 µM
TGI [13]: 2.32 µM
GI50 [14]: 0.763 µM
TGI [14]: 2.08 µM
GI50 [15]: 1.74 µM
TGI [15]: 3.29 µM
GI50 [16]: 1.14 µM
TGI [16]: 2.54 µM
GI50 [17]: 0.0385 µM
TGI [17]: 1.54 µM
GI50 [18]: 0.99 µM
TGI [18]: 2.15 µM
GI50 [19]: 14.8 µM
TGI [19]: 28.8 µM
GI50 [20]: 1.44 µM
TGI [20]: 3.11 µM
GI50 [21]: 10.1 µM
TGI [21]: 21.8 µM
GI50 [22]: 10.7 µM
TGI [22]: 28.7 µM
GI50 [23]: 0.349 µM
TGI [23]: 1.89 µM
GI50 [24]: 0.439 µM
TGI [24]: 1.57 µM
GI50 [25]: 1.11 µM
TGI [25]: 2.66 µM
GI50 [26]: 1.25 µM
TGI [26]: 2.8 µM
GI50 [27]: 2.86 µM
TGI [27]: 21.1 µM
GI50 [28]: 12.7 µM
TGI [28]: 26.7 µM
GI50 [29]: 13.6 µM
TGI [29]: 26.7 µM
GI50 [30]: 1.41 µM
TGI [30]: 2.79 µM
GI50 [31]: 9.32 µM
TGI [31]: 21.9 µM
GI50 [32]: 1.21 µM
TGI [32]: 2.84 µM
GI50 [33]: 1.16 µM
TGI [33]: 2.75 µM
GI50 [34]: 0.764 µM
TGI [34]: 2.49 µM
GI50 [35]: 1.24 µM
TGI [35]: 2.55 µM
GI50 [36]: 0.354 µM
TGI [36]: 1.6 µM
GI50 [37]: 0.307 µM
TGI [37]: 1.53 µM
GI50 [38]: 0.0953 µM
TGI [38]: 1.69 µM
GI50 [39]: 20.8 µM
TGI [39]: 35.2 µM
GI50 [40]: 7.13 µM
TGI [40]: 25.7 µM
GI50 [41]: 15.6 µM
TGI [41]: 29.2 µM
GI50 [42]: 0.473 µM
TGI [42]: 1.89 µM
GI50 [43]: 0.492 µM
TGI [43]: 2.1 µM
GI50 [44]: 1.49 µM
TGI [44]: 2.83 µM
GI50 [45]: 1.78 µM
TGI [45]: 3.48 µM
GI50 [46]: 1.29 µM
TGI [46]: 2.57 µM
GI50 [47]: 1.09 µM
TGI [47]: 2.38 µM
GI50 [48]: 0.243 µM
TGI [48]: 1.46 µM
GI50 [49]: 1.42 µM
TGI [49]: 2.84 µM
GI50 [50]: 1.07 µM
TGI [50]: 2.89 µM
GI50 [51]: 1.22 µM
TGI [51]: 2.57 µM
GI50 [52]: 1.74 µM
TGI [52]: 19.6 µM
GI50 [53]: 1.05 µM
TGI [53]: 7.63 µM
GI50 [54]: 0.082 µM
TGI [54]: 2.7 µM
GI50 [55]: 12.6 µM
TGI [55]: 25.4 µM
GI50 [56]: 1.49 µM
TGI [56]: 2.97 µM
